Structures can show the parent of a compound that is named as a salt.
Legend:
DSS colitis [1] = type: in vivo, C57BL/6J mice; conditions: mouse
Method: C57BL/6J (Jackson Lab) male mice weighing 25±2 g at 9 weeks of age were used, and all the mice were fed freely by providing standard experimental feed. The compound of Example 53 and LX1606 were dissolved in 0.25% methylcellulose (MC) solution, which was orally administered to mice at the dose of 100 and 300 mg/kg/time using a 1 mL syringe. The compound of Example 53 and LX1606 were administered for 7 days, starting one day prior to dextran sulfate sodium (DSS) administration. Before and after the administration, the samples of colon tissue were collected from each mouse treated with the compound of Example 53 or the control drug (LX1606) to confirm clinical symptoms. Data are expressed as mean±standard error of mean (SEM), and all statistical analyses were performed using GraphPad Prism (version 5.0, GraphPad Software, La Jolla, Calif.). Differences in mean between groups were statistically analyzed by two-way analysis of variance (ANOVA) and multiple comparison tests to reveal the differences between the experimental groups. […]
Colon permeability was measured to confirm if the compound of the present invention affected the amelioration of inflammatory bowel disorder. […] The importance of the intestinal epithelial layer was measured by the changes in intercellular permeability and intimate junction function observed in inflammatory bowel disease (IBD) and colorectal cancer. […]

DSS colitis [2] = assay: DSS colitis mouse model: colon length and colon looseness; type: in vivo, C57BL/6J mice; conditions: 100 mg/kg and 300 mg/kg oral, 7 days, 2.5% DSS
Method: C57BL/6J (Jackson Lab) male mice weighing 25±2 g at 9 weeks of age were used, and all the mice were fed freely by providing standard experimental feed. The compound of Example 53 and LX1606 were dissolved in 0.25% methylcellulose (MC) solution, which was orally administered to mice at the dose of 100 and 300 mg/kg/time using a 1 mL syringe. The compound of Example 53 and LX1606 were administered for 7 days, starting one day prior to dextran sulfate sodium (DSS) administration. Before and after the administration, the samples of colon tissue were collected from each mouse treated with the compound of Example 53 or the control drug (LX1606) to confirm clinical symptoms. Data are expressed as mean±standard error of mean (SEM), and all statistical analyses were performed using GraphPad Prism (version 5.0, GraphPad Software, La Jolla, Calif.). Differences in mean between groups were statistically analyzed by two-way analysis of variance (ANOVA) and multiple comparison tests to reveal the differences between the experimental groups. P<0.05 was considered statistically significant.
Enteritis was induced in mice by freely drinking 2.5% DSS (molecular weight: 36,000-50,000 M.Wt; manufactured by MP Biomedicals, Canada) aqueous solution for 6 days, and the body weight, stiffness of the stool, and the presence or absence of bloody stool were observed daily from the start of the administration. […]

[3] = biological target: TPH1 (tryptophan hydroxylase 1) (Homo sapiens (Human), UniProt P17752); assay: TPH1 inhibitor screening assay kit (BPS Bioscience), fluorescence; type: biochemical; conditions: TPH1 enzyme, 4 hours at 4° C., ex 300 nm / em 360 nm
Sequence of TPH1 (tryptophan hydroxylase 1) (P17752 whole entry): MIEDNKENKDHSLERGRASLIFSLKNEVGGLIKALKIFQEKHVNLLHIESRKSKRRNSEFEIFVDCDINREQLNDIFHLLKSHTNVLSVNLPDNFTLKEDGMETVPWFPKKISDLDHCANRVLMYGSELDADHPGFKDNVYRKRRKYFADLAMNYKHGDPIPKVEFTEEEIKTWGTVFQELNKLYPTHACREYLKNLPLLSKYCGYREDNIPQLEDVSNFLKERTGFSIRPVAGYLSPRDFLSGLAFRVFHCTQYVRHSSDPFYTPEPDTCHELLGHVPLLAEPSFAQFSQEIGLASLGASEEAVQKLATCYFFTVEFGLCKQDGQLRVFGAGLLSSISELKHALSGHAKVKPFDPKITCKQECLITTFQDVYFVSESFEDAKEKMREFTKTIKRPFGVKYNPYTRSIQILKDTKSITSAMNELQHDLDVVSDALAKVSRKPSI
Method: In order to confirm the inhibitory effect of the compound represented by formula 1 according to the present invention on the tryptophan hydroxylase activity, it was measured using a TPH1 (tryptophan hydroxylase 1) inhibitor screening assay kit (BPS Bioscience, Catalog #72053). The TPH1 inhibitor screening assay kit was used according to the manufacturer's manual.
Particularly, the synthesized compound was dissolved in DMSO, which was added to a 96-well microplate (10 ? /well), to which TPH1 enzyme was added (40 ? /well). Then, TPH1 reaction solution was added to the microplate (50 ? /well) and the microplate was shaded with aluminum foil. The microplate was transferred to 4° C. environment, shaken carefully and incubated for 4 hours. After adding a quench solution to the microplate (10 ? /well), the TPH1 activity was measured by reading the degree of fluorescence color development with a Flexstation3 microplate reader. At this time, the excitation spectrum was 300 nm and the emission spectrum was 360 nm.

In the case of CCOC(=O)[C@@H](N)CC1CC=C(c2cc(O[C@H](c3ccc(Cl)cc3-n3ccc(C)n3)C(F)(F)F)nc(N)n2)CC1 (stereo partly drawn) [Example 53, ethyl (2S)-2-amino-3-(4-(2-amino-6-((R)-1-(4-chloro-2-(3-methyl-1H-pyrazole-1-yl)phenyl)-2,2,2-trifluoroethoxy)pyrimidine-4-yl)cyclohex-3-ene-1-yl)propionate hippurate], the colon permeability (DSS colitis [1]) is reported as “lower permeability was observed on average”.

CCOC(=O)[C@@H](N)Cc1ccc(-c2cc(O[C@H](c3ccc(Cl)cc3-n3ccc(C)n3)C(F)(F)F)nc(N)n2)cc1 [LX1606, (2S)-2-Amino-3-[4-[2-amino-6-[[(1R)-1-[4-chloro-2-(3-methylpyrazol-1-yl)phenyl]-2,2,2-trifluoroethyl]oxy]pyrimidin-4-yl]phenyl]propionic acid ethyl ester] was tested, and the “colon length compared with vehicle group” value (DSS colitis [2]) was “not longer than that of the group treated with vehicle”.

COc1cccc(-c2ccc([C@@H](Oc3cc(C4=CCC5(CC4)CNC(C(=O)O)C5)nc(N)n3)C(F)(F)F)cc2)c1 (stereo partly drawn) [Example 89, 8-(2-amino-6-((R)-2,2,2-trifluoro-1-(3′-methoxy-[1,1′-biphenyl]-4-yl)ethoxy)pyrimidine-4-yl)-2-azaspiro[4.5]dec-7-ene-3-carboxylic acid] was tested, and the IC50 [3] was 0.409 µM.

With COc1cccc(-c2ccc(Cn3ccc4c(-c5ccc(C[C@H](N)C(=O)O)cc5)nc(N)nc43)cc2)c1 [Example 12, (S)-2-amino-3-(4-(2-amino-7-((3′-methoxy-[1,1′-biphenyl]-4-yl)methyl)-7H-pyrrolo[2,3-d]pyrimidine-4-yl)phenyl)propionic acid hydrochloride] the IC50 [3] was 0.297 µM.

Nc1nc(O[C@H](c2ccc(Cl)cc2C2=CCCOC2)C(F)(F)F)cc(C2=CCC3(CC2)CNC(C(=O)O)C3)n1 (stereo partly drawn) [Example 94, 8-(2-amino-6-((R)-1-(4-chloro-2-(5,6-dihydro-2H-pyran-3-yl)phenyl)-2,2,2-trifluoroethoxy)pyrimidine-4-yl)-2-azaspiro[4.5]dec-7-ene-3-carboxylic acid hydrochloride] gave an IC50 [3] of 0.209 µM.

For Nc1nc(O[C@H](c2ccc(Cl)cc2C2=CCOCC2)C(F)(F)F)cc(C2=CCC(C[C@H](N)C(=O)O)CC2)n1 (stereo partly drawn) [Example 85, (2S)-2-amino-3-(4-(2-amino-6-((R)-1-(4-chloro-2-(3,6-dihydro-2H-pyran-4-yl)phenyl)-2,2,2-trifluoroethoxy)pyrimidine-4-yl)cyclohex-3-ene-1-yl)propionic acid], the IC50 [3] was 0.94 µM.

Cc1ccn(-c2cc(Cl)ccc2[C@@H](Oc2cc(C3=CCC4(CC3)CNC(C(=O)O)C4)nc(N)n2)C(F)(F)F)n1 (stereo partly drawn) [Example 80, 8-(2-amino-6-((R)-1-(4-chloro-2-(3-methyl-1H-pyrazole-1-yl)phenyl)-2,2,2-trifluoroethoxy)pyrimidine-4-yl)-2-azaspiro[4.5]dec-7-ene-3-carboxylic acid] showed an IC50 [3] of 0.194 µM.
